# Like-named read-outs stand apart in the source and are kept apart here.
# System: subjects with MDD at imminent risk for suicide
# Settings: 84 mg
# [1] = TEAE leading to study discontinuation, double-blind phase, N = 35
# [2] = TEAE, double-blind phase, N = 35
compound,measurement,setting,value
"CN[C@]1(c2ccccc2Cl)CCCCC1=O [esketamine, (S)-2-(2-chlorophenyl)-2-(methylamino)cyclohexanone]",subjects who discontinued the double-blind phase due to adverse events,,5 subjects
same,TEAE incidence: dissociation,double-blind phase,31.4%
same,TEAE incidence: dizziness,double-blind phase,34.3%
same,TEAE incidence: dysgeusia,double-blind phase,31.4%
same,TEAE incidence: headache,double-blind phase,31.4%
same,TEAE incidence: nausea,double-blind phase,37.1%
same,TEAE incidence: vomiting,double-blind phase,20.0%
same,subjects with a serious treatment-emergent adverse event,double-blind phase,Four
same,subjects with at least one TEAE,double-blind phase,94.3%
same,subjects with a serious adverse event,follow up phase,1 subjects
same,subjects with at least one adverse event,follow up phase,48.1%
same,"Withdrawn from double-blind phase: Adverse event, percent of subjects",all randomized analysis set,(13.9%)
same,"Withdrawn from double-blind phase: Adverse event, number of subjects","all randomized analysis set, N = 36",5
same,Aggression: % of subjects,[1],2.9%
same,Aggression: no. of subjects,[1],1
same,Agitation: % of subjects,[1],2.9%
same,Agitation: no. of subjects,[1],1
same,Cardiac disorders: % of subjects,[1],2.9%
same,Cardiac disorders: no. of subjects,[1],1
same,Dissociative disorder: no. of subjects,[1],0
same,Dizziness: % of subjects,[1],2.9%
same,Dizziness: no. of subjects,[1],1
same,Dysgeusia: % of subjects,[1],2.9%
same,Dysgeusia: no. of subjects,[1],1
same,Dyspnea: % of subjects,[1],2.9%
same,Dyspnea: no. of subjects,[1],1
same,Gastrointestinal disorders: % of subjects,[1],2.9%
same,Gastrointestinal disorders: no. of subjects,[1],1
same,Nausea: % of subjects,[1],2.9%
same,Nausea: no. of subjects,[1],1
same,Nervous system disorders: % of subjects,[1],5.7%
same,Nervous system disorders: no. of subjects,[1],2
same,Panic attack: no. of subjects,[1],0
same,Psychiatric disorders: % of subjects,[1],5.7%
same,Psychiatric disorders: no. of subjects,[1],2
same,"Respiratory, thoracic and mediastinal disorders: % of subjects",[1],2.9%
same,"Respiratory, thoracic and mediastinal disorders: no. of subjects",[1],1
same,Total no. subjects with TEAE leading to study discontinuation: % of subjects,[1],14.3%
same,Total no. subjects with TEAE leading to study discontinuation: no. of subjects,[1],5
same,Ventricular extrasystoles: % of subjects,[1],2.9%
same,Ventricular extrasystoles: no. of subjects,[1],1
same,Abdominal pain: no. of subjects,[2],0
same,Acne: % of subjects,[2],(5.7%)
same,Acne: no. of subjects,[2],2
same,Agitation: % of subjects,[2],(8.6%)
same,Agitation: no. of subjects,[2],3
same,Anxiety: % of subjects,[2],(17.1%)
same,Anxiety: no. of subjects,[2],6
same,Blepharospasm: no. of subjects,[2],0
same,Blood pressure increased: % of subjects,[2],(5.7%)
same,Blood pressure increased: no. of subjects,[2],2
same,Constipation: no. of subjects,[2],0
same,Diarrhea: % of subjects,[2],(8.6%)
same,Diarrhea: no. of subjects,[2],3
same,Diplopia: % of subjects,[2],(5.7%)
same,Diplopia: no. of subjects,[2],2
same,Dissociation: % of subjects,[2],(31.4%)
same,Dissociation: no. of subjects,[2],11
same,Dizziness postural: % of subjects,[2],(5.7%)
same,Dizziness postural: no. of subjects,[2],2
same,Dizziness: % of subjects,[2],(34.3%)
same,Dizziness: no. of subjects,[2],12
same,Dry mouth: % of subjects,[2],(8.6%)
same,Dry mouth: no. of subjects,[2],3
same,Dysgeusia: % of subjects,[2],(31.4%)
same,Dysgeusia: no. of subjects,[2],11
same,Ear and labyrinth disorders: % of subjects,[2],(25.7%)
same,Ear and labyrinth disorders: no. of subjects,[2],9
same,Epistaxis: no. of subjects,[2],0
same,Euphoric mood: % of subjects,[2],(11.4%)
same,Euphoric mood: no. of subjects,[2],4
same,Eye disorders: % of subjects,[2],(20.0%)
same,Eye disorders: no. of subjects,[2],7
same,Fatigue: % of subjects,[2],(5.7%)
same,Fatigue: no. of subjects,[2],2
same,Feeling abnormal: % of subjects,[2],(8.6%)
same,Feeling abnormal: no. of subjects,[2],3
same,Feeling cold: % of subjects,[2],(5.7%)
same,Feeling cold: no. of subjects,[2],2
same,Flatulence: % of subjects,[2],(2.9%)
same,Flatulence: no. of subjects,[2],1
same,Gastrointestinal disorders: % of subjects,[2],(54.3%)
same,Gastrointestinal disorders: no. of subjects,[2],19
same,General disorders and administration site conditions: % of subjects,[2],(28.6%)
same,General disorders and administration site conditions: no. of subjects,[2],10
same,Headache: % of subjects,[2],(31.4%)
same,Headache: no. of subjects,[2],11
same,Hyperacusis: % of subjects,[2],(5.7%)
same,Hyperacusis: no. of subjects,[2],2
same,Hyperhidrosis: % of subjects,[2],(5.7%)
same,Hyperhidrosis: no. of subjects,[2],2
same,Hypoesthesia oral: % of subjects,[2],(5.7%)
same,Hypoesthesia oral: no. of subjects,[2],2
same,Hypoesthesia: % of subjects,[2],(8.6%)
same,Hypoesthesia: no. of subjects,[2],3
same,Infections and infestations: % of subjects,[2],(2.9%)
same,Infections and infestations: no. of subjects,[2],1
same,Insomnia: % of subjects,[2],(8.6%)
same,Insomnia: no. of subjects,[2],3
same,Intranasal paranesthesia: no. of subjects,[2],0
same,Investigations: % of subjects,[2],(14.3%)
same,Investigations: no. of subjects,[2],5
same,Nasal congestion: % of subjects,[2],(2.9%)
same,Nasal congestion: no. of subjects,[2],1
same,Nasal discomfort: % of subjects,[2],(8.6%)
same,Nasal discomfort: no. of subjects,[2],3
same,Nausea: % of subjects,[2],(37.1%)
same,Nausea: no. of subjects,[2],13
same,Nervous system disorders: % of subjects,[2],(71.4%)
same,Nervous system disorders: no. of subjects,[2],25
same,Oropharyngeal pain: % of subjects,[2],(5.7%)
same,Oropharyngeal pain: no. of subjects,[2],2
same,Panic attack: no. of subjects,[2],0
same,Paresthesia oral: % of subjects,[2],(5.7%)
same,Paresthesia oral: no. of subjects,[2],2
same,Paresthesia: % of subjects,[2],(17.1%)
same,Paresthesia: no. of subjects,[2],6
same,Pharyngeal hypoesthesia: % of subjects,[2],(5.7%)
same,Pharyngeal hypoesthesia: no. of subjects,[2],2
same,Pollakiuria: no. of subjects,[2],0
same,Psychiatric disorders: % of subjects,[2],(57.1%)
same,Psychiatric disorders: no. of subjects,[2],20
same,Rash: % of subjects,[2],(2.9%)
same,Rash: no. of subjects,[2],1
same,Renal and urinary disorders: % of subjects,[2],(2.9%)
same,Renal and urinary disorders: no. of subjects,[2],1
same,"Respiratory, thoracic and mediastinal disorders: % of subjects",[2],(25.7%)
same,"Respiratory, thoracic and mediastinal disorders: no. of subjects",[2],9
same,Rhinalgia: no. of subjects,[2],0
same,Rhinorrhoea: no. of subjects,[2],0
same,Sedation: % of subjects,[2],(17.1%)
same,Sedation: no. of subjects,[2],6
same,Skin and subcutaneous tissue disorders: % of subjects,[2],(14.3%)
same,Skin and subcutaneous tissue disorders: no. of subjects,[2],5
same,Somnolence: % of subjects,[2],(11.4%)
same,Somnolence: no. of subjects,[2],4
same,Suicidal ideation: % of subjects,[2],(5.7%)
same,Suicidal ideation: no. of subjects,[2],2
same,Throat irritation: % of subjects,[2],(8.6%)
same,Throat irritation: no. of subjects,[2],3
same,Tinnitus: % of subjects,[2],(5.7%)
same,Tinnitus: no. of subjects,[2],2
same,Toothache: no. of subjects,[2],0
same,Total no. subjects with TEAE: % of subjects,[2],(94.3%)
same,Total no. subjects with TEAE: no. of subjects,[2],33
same,Upper respiratory tract infection: no. of subjects,[2],0
same,Vertigo: % of subjects,[2],(11.4%)

# — patent publication US11883526B2 (priority 2019, dated 2024)
